Experimental data from ChEMBL document CHEMBL1138016, “Azaadamantane benzamide 5-HT4 agonists: gastrointestinal prokinetic SC-54750” (Bioorg Med Chem Lett, 2004).

Key:
[1] = biological target: T1, Serotonin 3 receptor (5HT3) (Mus musculus) (UniProt Q9JHJ5+P23979); test: Percent inhibition of 5-hydroxytryptamine 3 receptor after intraperitoneal administration at dose of 10 mpk was determined in mice by Von Bezold-Jarisch reflex assay
[2] = biological target: T1, Serotonin 3 receptor (5HT3) (Mus musculus); test: Percent inhibition of 5-hydroxytryptamine 3 receptor after intraperitoneal administration at dose of 0.3 mpk was determined in mice by Von Bezold-Jarisch reflex assay
[3] = biological target: T1, Serotonin 3 receptor (5HT3) (Mus musculus); test: Percent inhibition of 5-hydroxytryptamine 3 receptor after intraperitoneal administration at dose of 1 mpk was determined in mice by Von Bezold-Jarisch reflex assay
[4] = biological target: T1, Serotonin 3 receptor (5HT3) (Mus musculus); test: Percent inhibition of 5-hydroxytryptamine 3 receptor after intraperitoneal administration at dose of 0.03 mpk was determined in mice by Von Bezold-Jarisch reflex assay
[5] = biological target: T1, Serotonin 3 receptor (5HT3) (Mus musculus); test: Percent inhibition of 5-hydroxytryptamine 3 receptor after intraperitoneal administration at dose of 8 mpk was determined in mice by Von Bezold-Jarisch reflex assay
[6] = biological target: T1, Serotonin 3 receptor (5HT3) (Mus musculus); test: Percent inhibition of 5-hydroxytryptamine 3 receptor after intraperitoneal administration at dose of 0.1 mpk was determined in mice by Von Bezold-Jarisch reflex assay
[7] = biological target: T1, Serotonin 3 receptor (5HT3) (Mus musculus); test: Percent inhibition of 5-hydroxytryptamine 3 receptor after intraperitoneal administration at dose of 3 mpk was determined in mice by Von Bezold-Jarisch reflex assay
[8] = Effective dose required towards 5-hydroxytryptamine 4 receptor as agonism in rat tunica muscularis mucosae (TMM)
[9] = Concentration required for inhibition of 5-hydroxytryptamine 3 receptor using [3H]GR-65630 as the radioligand
[10] = biological target: T2, Adrenergic receptor alpha-1 (Homo sapiens, UniProt P35348+P25100+P35368); test: Concentration required for inhibition of alpha-1 adrenergic receptor using [3H]prazosin as the radioligand; assay type: protein assay
T2 sequence (P35348 whole entry): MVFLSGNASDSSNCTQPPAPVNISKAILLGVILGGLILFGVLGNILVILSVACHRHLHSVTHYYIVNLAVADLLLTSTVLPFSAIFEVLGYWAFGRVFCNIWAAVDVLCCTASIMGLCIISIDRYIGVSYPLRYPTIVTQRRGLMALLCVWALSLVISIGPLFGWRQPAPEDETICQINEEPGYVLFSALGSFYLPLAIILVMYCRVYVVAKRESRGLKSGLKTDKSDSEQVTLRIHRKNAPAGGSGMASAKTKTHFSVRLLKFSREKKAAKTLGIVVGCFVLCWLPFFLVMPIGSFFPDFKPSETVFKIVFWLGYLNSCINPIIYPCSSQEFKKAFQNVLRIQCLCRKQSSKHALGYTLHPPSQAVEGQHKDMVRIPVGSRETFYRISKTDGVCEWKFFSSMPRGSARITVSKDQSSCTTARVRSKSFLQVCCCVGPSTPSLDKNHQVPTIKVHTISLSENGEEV
T2 sequence (P25100 whole entry): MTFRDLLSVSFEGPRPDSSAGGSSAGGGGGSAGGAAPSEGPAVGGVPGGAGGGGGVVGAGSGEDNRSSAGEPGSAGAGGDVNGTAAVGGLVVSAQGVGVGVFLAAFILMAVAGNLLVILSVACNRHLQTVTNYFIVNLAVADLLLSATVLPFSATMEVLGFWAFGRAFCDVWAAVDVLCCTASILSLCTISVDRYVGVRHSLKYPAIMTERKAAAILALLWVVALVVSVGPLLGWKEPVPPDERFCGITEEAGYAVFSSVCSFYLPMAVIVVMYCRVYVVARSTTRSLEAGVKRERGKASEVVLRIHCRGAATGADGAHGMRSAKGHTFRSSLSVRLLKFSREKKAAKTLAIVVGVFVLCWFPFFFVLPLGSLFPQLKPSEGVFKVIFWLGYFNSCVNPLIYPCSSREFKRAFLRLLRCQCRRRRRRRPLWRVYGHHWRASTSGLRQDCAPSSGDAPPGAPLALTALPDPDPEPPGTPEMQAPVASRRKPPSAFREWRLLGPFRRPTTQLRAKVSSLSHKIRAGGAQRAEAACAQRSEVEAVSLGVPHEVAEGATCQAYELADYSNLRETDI
T2 sequence (P35368 whole entry): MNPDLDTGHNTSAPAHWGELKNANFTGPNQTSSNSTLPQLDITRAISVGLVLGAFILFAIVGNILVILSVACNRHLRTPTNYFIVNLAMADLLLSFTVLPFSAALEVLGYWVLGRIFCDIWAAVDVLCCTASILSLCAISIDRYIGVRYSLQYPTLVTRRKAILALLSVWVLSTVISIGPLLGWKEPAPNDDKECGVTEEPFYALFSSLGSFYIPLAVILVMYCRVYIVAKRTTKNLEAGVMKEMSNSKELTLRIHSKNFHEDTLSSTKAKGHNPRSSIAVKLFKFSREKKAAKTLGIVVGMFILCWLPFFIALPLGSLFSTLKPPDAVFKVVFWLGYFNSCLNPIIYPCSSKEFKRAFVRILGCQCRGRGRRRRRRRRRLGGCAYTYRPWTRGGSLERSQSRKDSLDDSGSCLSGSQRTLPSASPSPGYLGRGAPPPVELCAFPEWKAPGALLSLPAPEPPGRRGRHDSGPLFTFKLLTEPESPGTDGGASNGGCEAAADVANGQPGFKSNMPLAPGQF

Adrenergic receptor beta = Adrenergic receptor beta (Homo sapiens, UniProt P08588+P07550+P13945); test: Concentration required for inhibition of beta adrenergic receptor; assay type: protein assay
[11] = Concentration required for inhibition of 5-hydroxytryptamine 1 receptor using [3H]-5-HT as the radioligand
[12] = Concentration required for inhibition of Dopamine receptor D2 using [3H]spiperone as the radioligand
[13] = biological target: T3, Adrenergic receptor alpha-2 (Homo sapiens, UniProt P08913+P18825+P18089); test: Concentration required for inhibition of alpha-2 adrenergic receptor; assay type: protein assay
T3 sequence (P08913 whole entry): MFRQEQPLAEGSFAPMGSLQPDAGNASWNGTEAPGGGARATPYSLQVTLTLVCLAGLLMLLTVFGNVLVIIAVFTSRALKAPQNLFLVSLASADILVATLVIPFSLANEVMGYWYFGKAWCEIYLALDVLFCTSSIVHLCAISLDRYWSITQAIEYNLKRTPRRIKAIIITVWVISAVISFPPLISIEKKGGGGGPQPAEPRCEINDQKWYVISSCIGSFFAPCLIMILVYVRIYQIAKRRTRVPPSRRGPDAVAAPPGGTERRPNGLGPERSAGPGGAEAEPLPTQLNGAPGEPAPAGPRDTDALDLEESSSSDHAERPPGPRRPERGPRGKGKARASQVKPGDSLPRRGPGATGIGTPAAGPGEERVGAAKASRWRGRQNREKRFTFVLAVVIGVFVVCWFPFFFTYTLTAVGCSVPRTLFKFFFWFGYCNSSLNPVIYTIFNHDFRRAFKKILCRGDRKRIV
T3 sequence (P18825 whole entry): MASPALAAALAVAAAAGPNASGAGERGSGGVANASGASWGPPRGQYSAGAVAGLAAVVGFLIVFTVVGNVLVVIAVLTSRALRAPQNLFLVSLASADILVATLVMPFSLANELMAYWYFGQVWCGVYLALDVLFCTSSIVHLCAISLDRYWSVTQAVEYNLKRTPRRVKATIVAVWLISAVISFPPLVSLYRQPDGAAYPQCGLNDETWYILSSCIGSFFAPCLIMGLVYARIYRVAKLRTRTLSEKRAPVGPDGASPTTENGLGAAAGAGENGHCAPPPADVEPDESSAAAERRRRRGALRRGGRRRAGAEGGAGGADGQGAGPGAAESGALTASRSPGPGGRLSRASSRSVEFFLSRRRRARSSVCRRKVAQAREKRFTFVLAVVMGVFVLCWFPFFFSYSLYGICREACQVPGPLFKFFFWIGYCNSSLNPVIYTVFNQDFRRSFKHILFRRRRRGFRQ
T3 sequence (P18089 whole entry): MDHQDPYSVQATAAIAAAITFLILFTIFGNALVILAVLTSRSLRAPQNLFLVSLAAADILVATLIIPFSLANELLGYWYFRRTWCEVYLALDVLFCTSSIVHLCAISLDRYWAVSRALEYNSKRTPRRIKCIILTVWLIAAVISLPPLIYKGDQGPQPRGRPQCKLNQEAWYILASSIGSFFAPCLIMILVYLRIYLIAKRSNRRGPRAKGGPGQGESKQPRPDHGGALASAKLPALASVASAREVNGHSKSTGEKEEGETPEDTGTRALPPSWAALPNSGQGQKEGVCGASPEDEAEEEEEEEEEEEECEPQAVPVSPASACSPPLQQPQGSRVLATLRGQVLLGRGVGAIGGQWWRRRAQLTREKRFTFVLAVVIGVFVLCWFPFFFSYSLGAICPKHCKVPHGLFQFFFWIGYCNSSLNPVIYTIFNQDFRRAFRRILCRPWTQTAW

[14] = biological target: Serotonin 2 (5-HT2) receptor (Homo sapiens, UniProt P41595+P28223+P28335); assay type: protein assay
[15] = Concentration required for inhibition of Dopamine receptor D1 using [3H]SCH-23,390 as the radioligand
[16] = biological target: T4, Serotonin 3 (5-HT3) receptor (Rattus norvegicus, UniProt P35563+Q9JJ16); test: Binding affinity towards 5-hydroxytryptamine 3 receptor using [3H]GR-65630 as the radioligand in male rat cortical tissue; assay type: protein-complex assay
T4 sequence (P35563 whole entry): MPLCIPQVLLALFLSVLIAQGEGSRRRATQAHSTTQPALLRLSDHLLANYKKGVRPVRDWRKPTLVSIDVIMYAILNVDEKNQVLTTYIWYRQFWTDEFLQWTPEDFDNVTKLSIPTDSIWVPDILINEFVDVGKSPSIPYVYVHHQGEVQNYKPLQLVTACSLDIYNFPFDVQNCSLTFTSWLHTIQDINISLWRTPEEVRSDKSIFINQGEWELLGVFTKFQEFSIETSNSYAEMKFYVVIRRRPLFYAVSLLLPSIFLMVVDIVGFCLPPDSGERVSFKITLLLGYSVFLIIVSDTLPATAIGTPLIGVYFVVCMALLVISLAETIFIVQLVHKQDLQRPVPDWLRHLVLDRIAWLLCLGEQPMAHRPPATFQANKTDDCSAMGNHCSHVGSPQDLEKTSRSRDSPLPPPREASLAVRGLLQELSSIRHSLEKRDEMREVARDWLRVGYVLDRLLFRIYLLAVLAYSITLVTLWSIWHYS
T4 sequence (Q9JJ16 whole entry): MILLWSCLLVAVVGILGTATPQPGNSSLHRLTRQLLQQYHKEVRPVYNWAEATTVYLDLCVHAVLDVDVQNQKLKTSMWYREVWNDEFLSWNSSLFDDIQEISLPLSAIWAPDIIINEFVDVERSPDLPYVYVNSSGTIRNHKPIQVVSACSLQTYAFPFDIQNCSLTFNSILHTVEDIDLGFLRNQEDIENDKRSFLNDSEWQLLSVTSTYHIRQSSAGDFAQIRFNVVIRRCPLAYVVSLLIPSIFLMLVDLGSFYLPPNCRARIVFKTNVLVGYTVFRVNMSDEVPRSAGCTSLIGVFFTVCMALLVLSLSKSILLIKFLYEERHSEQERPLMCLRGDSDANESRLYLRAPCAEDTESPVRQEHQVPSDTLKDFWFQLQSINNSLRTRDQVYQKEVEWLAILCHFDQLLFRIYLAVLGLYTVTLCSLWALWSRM

T1 sequence (P23979 whole entry, looked up): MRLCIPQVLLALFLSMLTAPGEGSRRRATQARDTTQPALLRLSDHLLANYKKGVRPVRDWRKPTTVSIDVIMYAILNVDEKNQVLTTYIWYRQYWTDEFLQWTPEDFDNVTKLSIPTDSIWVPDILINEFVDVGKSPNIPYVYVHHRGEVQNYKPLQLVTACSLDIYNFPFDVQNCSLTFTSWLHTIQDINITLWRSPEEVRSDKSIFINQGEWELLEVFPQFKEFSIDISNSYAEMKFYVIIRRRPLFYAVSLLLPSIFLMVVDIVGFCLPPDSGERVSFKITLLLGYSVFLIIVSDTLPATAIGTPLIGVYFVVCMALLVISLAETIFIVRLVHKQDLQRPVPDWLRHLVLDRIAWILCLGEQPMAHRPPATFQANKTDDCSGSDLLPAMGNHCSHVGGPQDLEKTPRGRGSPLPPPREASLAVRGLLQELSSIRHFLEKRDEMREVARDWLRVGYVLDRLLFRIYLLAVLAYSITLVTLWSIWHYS
T1 sequence (Q9JHJ5 whole entry, looked up): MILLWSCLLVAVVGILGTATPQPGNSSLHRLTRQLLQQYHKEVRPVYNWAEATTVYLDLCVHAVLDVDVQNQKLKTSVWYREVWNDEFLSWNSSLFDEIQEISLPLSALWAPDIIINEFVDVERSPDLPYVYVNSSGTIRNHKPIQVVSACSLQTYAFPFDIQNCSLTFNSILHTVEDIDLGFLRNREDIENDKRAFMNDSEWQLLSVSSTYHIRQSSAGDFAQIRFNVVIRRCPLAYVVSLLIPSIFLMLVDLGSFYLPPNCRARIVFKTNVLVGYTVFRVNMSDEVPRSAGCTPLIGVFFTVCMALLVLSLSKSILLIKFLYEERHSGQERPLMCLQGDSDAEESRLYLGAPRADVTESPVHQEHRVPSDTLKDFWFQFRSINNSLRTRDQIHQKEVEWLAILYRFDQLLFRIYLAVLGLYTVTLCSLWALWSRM

For `COc1cc(N)c(Cl)cc1C(=O)NCC1C2CC3CC1CN(C3)C2` (stereo in doubt; 9c), the inhibition [1] was 88%, the inhibition [2] was 75% and the inhibition [3] was 82%. It also gave an inhibition [4] of 0%, an inhibition [5] of 82% and an inhibition [6] of 60%.

`COc1cc(N)c(Cl)cc1C(=O)NC1C2CC3CC1CN(C3)C2` (stereo in doubt; 9b) showed an inhibition [7] of 81%, an inhibition [1] of 86% and an inhibition [2] of 70%. It also gave an inhibition [3] of 75%, an inhibition [4] of 61% and an ED50 [8] of 262 nM. For the same compound, the inhibition [6] was 64%.

Compound `COc1cc(N)c(Cl)cc1C(=O)N[C@@H]1C2CC3CN(C2)CC31` (stereo not given in full) has an IC50 [9] of 2.3 nM, an IC50 [10] greater than 10000 nM and an IC50 (Adrenergic receptor beta) greater than 10000 nM. For the same compound, the IC50 [11] was greater than 10000 nM, the IC50 [12] was greater than 10000 nM and the IC50 [13] was greater than 10000 nM. The IC50 [14] was greater than 10000 nM, the IC50 [15] was greater than 10000 nM and the ED50 [8] was 51.3 nM.

Work on `COc1cc(N)c(Cl)cc1C(=O)NCC1C2CC3CC1CN(C3)C2` (stereo in doubt; 9d) [listing 1 of 2 here] yielded an IC50 [9] of 11 nM and a Ki [16] of 144 nM.

In the case of `COc1cc(N)c(Cl)cc1C(=O)NC1C2CC3CC1CN(C3)C2` (stereo in doubt; 9a), the inhibition [7] is reported as 0%, the inhibition [1] is reported as 85% and the ED50 [8] is reported as 538 nM.

`COc1cc(N)c(Cl)cc1C(=O)NC1CCN(CCCOc2ccc(F)cc2)CC1OC` (stereo not given) [CISAPRIDE] showed an IC50 [10] of 30 nM, an IC50 (Adrenergic receptor beta) greater than 10000 nM and an IC50 [11] greater than 10000 nM. The IC50 [15] was 1700 nM and the ED50 [8] was 54.7 nM.

For `COc1cc(N)c(Cl)cc1C(=O)NCC1C2CC3CC1CN(C3)C2` (stereo in doubt; 9d) [listing 2 of 2 here], the inhibition [7] was 82%, the inhibition [1] was 85% and the inhibition [3] was 0%.
